pIC50, pKi: −log10 of the molar value. One block for each compound: values may come before it.
Assays:
[1] = target: T1, Poly [ADP-ribose] polymerase 1 (Homo sapiens, UniProt P09874); assay: Inhibition of PARP1 (unknown origin) incubated for 1 hr by chemiluminescence assay
[2] = target: Poly [ADP-ribose] polymerase tankyrase-2 (Homo sapiens, UniProt Q9H2K2); assay: Inhibition of tankyrase 2 (unknown origin) incubated for 1 hr by chemiluminescence based assay
[3] = target: Poly [ADP-ribose] polymerase tankyrase-1 (Homo sapiens, UniProt O95271); assay: Inhibition of tankyrase 1 (unknown origin) incubated for 1 hr by chemiluminescence assay
[4] = target: T1, Poly [ADP-ribose] polymerase 1; assay: Inhibition of N-terminal GST-tagged recombinant human PARP1 (2 to 1014 residues) expressed in Sf9 insect cells incubated for 1 hr by colorimetric assay
LoVo = assay: Inhibition of cell growth in human LoVo cells assessed as measuring ATP content incubated for 3 days by Cell Titer Glo assay; assay type: functional, cell-based; details: 72 h
ATR/ATRIP [5] = target: T2, ATR/ATRIP (Homo sapiens, UniProt Q13535); assay: Inhibition of full-length human recombinant FLAG-tagged ATR/c-Myc-tagged ATRIP using p53 as substrate incubated for 30 mins in presence of ATP by HTRF assay; assay type: protein-complex assay
[6] = target: T3, DNA-dependent protein kinase catalytic subunit (Homo sapiens, UniProt P78527); assay: Inhibition of full-length human DNA-PK expressed in baculovirus expression system using p53 as substrate incubated for 1 hr in presence of ATP by ELISA
[7] = target: T4, Serine-protein kinase ATM (Homo sapiens, UniProt Q13315); assay: Inhibition of ATM in human MCF7 cells […] incubated for 1 hr by Cell Western assay; assay type: cell-based
NCI-H1299 = assay: Inhibition of cell proliferation in human NCI-H1299 cells incubated for 3 days by MTT assay; assay type: functional, cell-based; details: NCI-H1299, 72 h
[8] = Oral bioavailability in BALB/c mouse at 2 mg/kg by LC-MS/MS analysis; assay type: ADME, organism-based; details: in vivo
[9] = Cmax in BALB/c mouse at 2 mg/kg, po by LC-MS/MS analysis; assay type: ADME, organism-based; design: dose 2 mg/kg, route po; details: in vivo
Wee1-like protein kinase = Wee1-like protein kinase (Homo sapiens, UniProt P30291); assay: Displacement of tracer 178 from WEE1 (unknown origin) incubated for 1 hr by Lantha Screen assay
ATR/ATRIP [10] = target: T2, ATR/ATRIP; assay: Inhibition of human FLAG-tagged ATR/c-Myc-tagged ATRIP expressed in mammalian expression system using p53 as substrate incubated for 2 hrs by fluorescence based assay
Homo sapiens [11] = species on record: Homo sapiens; assay: Selectivity index, ratio of IC50 for ATM (unknown origin) to IC50 for ATR (unknown origin)
Homo sapiens [12] = species on record: Homo sapiens; assay: Selectivity index, ratio of IC50 for ATM (unknown origin) to IC50 for mTOR (unknown origin)
Homo sapiens [13] = species on record: Homo sapiens; assay: Selectivity index, ratio of IC50 for ATM (unknown origin) to IC50 for PI3K-alpha (unknown origin)
[14] = target: Serine/threonine-protein kinase mTOR (Homo sapiens, UniProt P42345); assay: Inhibition of mTOR (unknown origin)
[15] = target: Phosphatidylinositol 4,5-bisphosphate 3-kinase catalytic subunit alpha isoform (Homo sapiens, UniProt P42336); assay: Inhibition of PI3K-alpha (unknown origin)
[16] = target: Serine/threonine-protein kinase ATR (Homo sapiens, UniProt Q13535); assay: Inhibition of ATR (unknown origin)
[17] = target: T4, Serine-protein kinase ATM; assay: Inhibition of ATM (unknown origin)
[18] = target: T1, Poly [ADP-ribose] polymerase 1; assay: Inhibition of PARP1 (unknown origin) by ELISA
[19] = target: T3, DNA-dependent protein kinase catalytic subunit; assay: Inhibition of DNA-PK (unknown origin) assessed as inhibition constant using Glu-Pro-Pro-Leu-Ser-Gln-Glu-Ala-Phe-Ala-Asp-Leu-Trp-Lys-Lys-Lys peptide as substrate incubated for 45 mins in presence of [33P]-ATP by scintillation counting method
DU-145 = assay: Inhibition of cell proliferation in human DU-145 cells incubated for 4 days by MTT assay; assay type: functional, cell-based; details: DU-145, 96 h
ATR/ATRIP [20] = target: T2, ATR/ATRIP; assay: Inhibition of full-length human recombinant FLAG-tagged ATR/c-Myc-tagged ATRIP using p53 as substrate incubated for 30 mins in presence of ATP by fluorescence based assay; assay type: protein-complex assay
NCI-H460 = assay: Inhibition of cell proliferation in human NCI-H460 cells incubated for 4 days by MTT assay; assay type: functional, cell-based; details: NCI-H460, 96 h

T2 sequence (Q13535 whole entry): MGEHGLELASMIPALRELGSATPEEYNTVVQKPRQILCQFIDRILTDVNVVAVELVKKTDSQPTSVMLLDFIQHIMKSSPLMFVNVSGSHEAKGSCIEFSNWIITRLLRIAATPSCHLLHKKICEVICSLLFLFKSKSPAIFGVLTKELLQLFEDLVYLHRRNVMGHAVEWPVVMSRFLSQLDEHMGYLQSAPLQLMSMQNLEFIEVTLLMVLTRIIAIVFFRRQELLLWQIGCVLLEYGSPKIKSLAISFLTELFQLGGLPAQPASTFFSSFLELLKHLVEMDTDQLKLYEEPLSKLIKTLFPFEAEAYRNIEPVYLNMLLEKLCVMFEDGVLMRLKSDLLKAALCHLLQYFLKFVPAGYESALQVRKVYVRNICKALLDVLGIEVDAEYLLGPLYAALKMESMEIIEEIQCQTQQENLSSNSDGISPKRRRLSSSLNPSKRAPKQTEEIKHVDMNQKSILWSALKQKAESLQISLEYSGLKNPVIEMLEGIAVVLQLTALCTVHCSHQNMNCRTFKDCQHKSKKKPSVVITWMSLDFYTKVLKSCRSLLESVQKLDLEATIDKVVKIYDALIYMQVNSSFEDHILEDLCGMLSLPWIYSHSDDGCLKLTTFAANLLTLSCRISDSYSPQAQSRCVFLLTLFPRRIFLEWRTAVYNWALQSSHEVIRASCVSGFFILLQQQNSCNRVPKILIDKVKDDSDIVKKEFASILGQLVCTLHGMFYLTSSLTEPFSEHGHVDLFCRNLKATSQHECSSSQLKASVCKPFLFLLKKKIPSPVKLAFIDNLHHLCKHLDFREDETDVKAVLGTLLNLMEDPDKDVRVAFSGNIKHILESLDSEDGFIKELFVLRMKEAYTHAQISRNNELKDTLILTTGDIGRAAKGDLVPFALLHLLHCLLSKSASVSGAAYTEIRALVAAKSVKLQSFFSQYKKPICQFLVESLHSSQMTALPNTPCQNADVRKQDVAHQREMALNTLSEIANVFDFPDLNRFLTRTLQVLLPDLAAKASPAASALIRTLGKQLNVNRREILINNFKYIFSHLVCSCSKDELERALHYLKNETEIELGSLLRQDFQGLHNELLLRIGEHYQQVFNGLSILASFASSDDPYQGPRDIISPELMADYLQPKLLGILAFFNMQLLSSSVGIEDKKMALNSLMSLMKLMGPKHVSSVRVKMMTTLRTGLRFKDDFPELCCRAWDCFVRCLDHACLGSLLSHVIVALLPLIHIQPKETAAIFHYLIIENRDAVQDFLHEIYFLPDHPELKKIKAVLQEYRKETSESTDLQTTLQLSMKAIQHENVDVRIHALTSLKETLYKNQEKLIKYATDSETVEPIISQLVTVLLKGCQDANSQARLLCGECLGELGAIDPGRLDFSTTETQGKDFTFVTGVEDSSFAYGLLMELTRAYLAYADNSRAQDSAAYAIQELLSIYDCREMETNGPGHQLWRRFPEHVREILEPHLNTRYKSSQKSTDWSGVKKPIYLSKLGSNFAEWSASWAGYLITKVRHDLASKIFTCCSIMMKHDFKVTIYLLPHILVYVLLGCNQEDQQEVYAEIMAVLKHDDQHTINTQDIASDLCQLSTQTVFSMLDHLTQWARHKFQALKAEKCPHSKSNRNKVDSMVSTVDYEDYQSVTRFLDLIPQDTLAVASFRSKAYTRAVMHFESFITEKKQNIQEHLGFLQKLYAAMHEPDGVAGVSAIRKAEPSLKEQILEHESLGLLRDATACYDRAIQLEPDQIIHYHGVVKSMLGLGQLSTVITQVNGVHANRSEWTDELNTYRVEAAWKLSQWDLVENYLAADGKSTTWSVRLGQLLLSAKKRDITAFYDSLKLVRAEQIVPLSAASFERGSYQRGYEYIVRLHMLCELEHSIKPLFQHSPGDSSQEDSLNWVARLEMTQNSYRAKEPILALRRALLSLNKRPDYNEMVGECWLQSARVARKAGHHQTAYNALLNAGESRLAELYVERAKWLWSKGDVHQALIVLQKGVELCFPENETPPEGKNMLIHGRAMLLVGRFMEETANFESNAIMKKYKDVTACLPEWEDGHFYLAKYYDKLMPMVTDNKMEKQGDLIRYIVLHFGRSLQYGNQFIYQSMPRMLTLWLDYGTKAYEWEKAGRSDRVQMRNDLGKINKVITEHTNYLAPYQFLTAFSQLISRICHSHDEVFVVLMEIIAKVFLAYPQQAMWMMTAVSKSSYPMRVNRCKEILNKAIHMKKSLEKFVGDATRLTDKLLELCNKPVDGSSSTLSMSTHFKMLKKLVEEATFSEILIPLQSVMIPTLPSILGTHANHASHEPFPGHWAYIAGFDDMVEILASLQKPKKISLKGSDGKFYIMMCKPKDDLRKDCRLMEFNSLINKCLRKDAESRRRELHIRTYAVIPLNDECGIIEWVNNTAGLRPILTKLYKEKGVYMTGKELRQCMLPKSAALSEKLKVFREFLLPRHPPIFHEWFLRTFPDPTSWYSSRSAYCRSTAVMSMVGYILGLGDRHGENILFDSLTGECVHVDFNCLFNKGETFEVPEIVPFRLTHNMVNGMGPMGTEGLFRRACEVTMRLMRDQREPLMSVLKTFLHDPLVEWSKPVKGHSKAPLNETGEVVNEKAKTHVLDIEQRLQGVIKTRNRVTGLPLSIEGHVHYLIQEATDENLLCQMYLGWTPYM
T2 sequence (Q8WXE1 whole entry, further chain): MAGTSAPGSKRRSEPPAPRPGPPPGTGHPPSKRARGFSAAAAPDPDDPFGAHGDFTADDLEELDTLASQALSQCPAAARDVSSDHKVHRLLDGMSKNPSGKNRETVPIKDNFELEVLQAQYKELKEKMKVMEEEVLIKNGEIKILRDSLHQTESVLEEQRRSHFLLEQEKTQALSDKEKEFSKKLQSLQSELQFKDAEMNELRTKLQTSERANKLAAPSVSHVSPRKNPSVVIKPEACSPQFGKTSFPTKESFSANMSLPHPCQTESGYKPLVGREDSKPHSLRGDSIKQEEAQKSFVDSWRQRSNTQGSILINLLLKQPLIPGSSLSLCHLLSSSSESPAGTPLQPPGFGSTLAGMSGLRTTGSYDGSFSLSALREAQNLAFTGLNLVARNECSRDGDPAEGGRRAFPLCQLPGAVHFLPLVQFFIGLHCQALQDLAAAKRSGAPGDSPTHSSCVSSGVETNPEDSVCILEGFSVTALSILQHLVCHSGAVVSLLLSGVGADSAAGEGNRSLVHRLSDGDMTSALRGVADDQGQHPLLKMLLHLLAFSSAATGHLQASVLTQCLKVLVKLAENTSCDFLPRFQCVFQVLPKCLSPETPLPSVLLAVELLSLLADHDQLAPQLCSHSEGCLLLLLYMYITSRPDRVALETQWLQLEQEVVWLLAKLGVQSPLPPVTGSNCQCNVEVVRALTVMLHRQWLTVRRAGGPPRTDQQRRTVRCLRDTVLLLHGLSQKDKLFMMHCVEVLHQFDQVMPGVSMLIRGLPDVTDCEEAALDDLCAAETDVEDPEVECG
T1 sequence (P09874 whole entry): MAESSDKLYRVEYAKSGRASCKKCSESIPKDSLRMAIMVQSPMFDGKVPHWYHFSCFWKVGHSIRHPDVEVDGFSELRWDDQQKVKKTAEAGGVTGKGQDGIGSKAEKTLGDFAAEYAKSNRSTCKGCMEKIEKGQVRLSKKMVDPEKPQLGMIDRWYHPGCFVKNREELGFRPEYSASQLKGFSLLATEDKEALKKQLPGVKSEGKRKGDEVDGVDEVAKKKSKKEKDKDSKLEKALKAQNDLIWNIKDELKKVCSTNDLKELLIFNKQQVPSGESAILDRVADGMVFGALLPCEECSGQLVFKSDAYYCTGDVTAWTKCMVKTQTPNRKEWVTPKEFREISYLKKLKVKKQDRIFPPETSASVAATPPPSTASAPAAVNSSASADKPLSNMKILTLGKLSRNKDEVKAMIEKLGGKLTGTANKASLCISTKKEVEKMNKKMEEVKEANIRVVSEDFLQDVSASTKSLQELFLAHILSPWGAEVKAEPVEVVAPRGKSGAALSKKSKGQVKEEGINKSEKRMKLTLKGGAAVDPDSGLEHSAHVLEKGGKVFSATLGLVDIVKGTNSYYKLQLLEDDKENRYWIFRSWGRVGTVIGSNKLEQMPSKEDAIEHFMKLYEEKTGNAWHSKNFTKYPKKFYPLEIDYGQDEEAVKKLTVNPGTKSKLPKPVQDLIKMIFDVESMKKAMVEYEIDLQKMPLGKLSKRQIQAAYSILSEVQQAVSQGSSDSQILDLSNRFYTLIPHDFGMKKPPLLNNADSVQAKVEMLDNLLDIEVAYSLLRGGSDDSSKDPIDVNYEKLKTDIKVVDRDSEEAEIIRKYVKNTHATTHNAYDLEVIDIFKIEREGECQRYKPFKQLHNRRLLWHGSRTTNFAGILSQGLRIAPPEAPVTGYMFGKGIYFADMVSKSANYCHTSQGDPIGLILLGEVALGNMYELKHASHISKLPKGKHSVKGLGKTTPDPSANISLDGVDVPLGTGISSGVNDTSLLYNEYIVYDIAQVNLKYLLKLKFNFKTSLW
Chain of Serine/threonine-protein kinase ATR (Q13535 whole entry): as the sequence (Q13535 whole entry) above
Chain of Wee1-like protein kinase (P30291 whole entry): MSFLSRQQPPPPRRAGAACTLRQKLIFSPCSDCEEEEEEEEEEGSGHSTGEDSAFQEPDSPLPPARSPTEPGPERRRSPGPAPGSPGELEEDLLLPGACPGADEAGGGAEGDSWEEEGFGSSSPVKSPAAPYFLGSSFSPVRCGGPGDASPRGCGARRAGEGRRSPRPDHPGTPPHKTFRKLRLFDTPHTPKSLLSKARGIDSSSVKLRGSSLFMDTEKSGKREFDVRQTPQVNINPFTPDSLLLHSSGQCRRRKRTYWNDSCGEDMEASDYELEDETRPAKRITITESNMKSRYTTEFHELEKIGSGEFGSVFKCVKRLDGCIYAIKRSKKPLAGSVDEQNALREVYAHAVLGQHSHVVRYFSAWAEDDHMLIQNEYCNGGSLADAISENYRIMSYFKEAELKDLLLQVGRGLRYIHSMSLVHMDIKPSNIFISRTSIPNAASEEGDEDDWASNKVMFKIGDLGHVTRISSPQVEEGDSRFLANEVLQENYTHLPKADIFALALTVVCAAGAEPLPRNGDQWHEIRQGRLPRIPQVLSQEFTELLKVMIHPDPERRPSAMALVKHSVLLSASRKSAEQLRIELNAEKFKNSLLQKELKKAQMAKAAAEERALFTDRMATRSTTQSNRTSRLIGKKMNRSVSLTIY

pIC50 (NCI-H1299): 6.98
SMILES: C[C@@H]1CN(c2ccc(Nc3cc4c(cn3)C(=O)N(c3c(Cl)cccc3Cl)C3=NCCN34)cc2)C[C@H](C)N1C

pIC50 (NCI-H1299): 6.81
SMILES: CN1CCN(c2ccc(Nc3cc4c(cn3)C(=O)N(c3ccccc3Cl)C3=NCCN34)cc2)CC1

pIC50 (Wee1-like protein kinase): 8.32
SMILES: C=CCn1c(=O)c2cnc(Nc3ccc4c(c3)OC[C@@H]3C[C@@H](N(C)C)CN43)nc2n1-c1ccc(C(C)(C)O)cn1

Ratio IC50 (Homo sapiens [11]): > 1000
Ratio IC50 (Homo sapiens [12]): > 1000
Ratio IC50 (Homo sapiens [13]): > 1000
pIC50 [14]: < 5.00
pIC50 [15]: < 5.00
pIC50 [16]: < 4.52
pIC50 [17]: 8.80
SMILES: CC(C)n1c(=O)n(C)c2cnc3ccc(-c4ccc(OCCCN5CCCC5)nc4)cc3c21

pIC50 (Wee1-like protein kinase): 8.60
SMILES: C=CCn1c(=O)c2cnc(Nc3ccc4c(c3)OC[C@@H]3CN(C)CCN43)nc2n1-c1ccc(C(C)(C)O)cn1

bioavailability [8]: 96.4%
SMILES: Cc1cc2ncnn2cc1Nc1ncc2c(n1)n(N1CCOCC1)c(=O)n2C

The remaining lines, values behind:

SMILES: COc1ccccc1NC(=O)c1ccc(NC(=O)N2CCN(C(=O)c3cc(Cc4n[nH]c(=O)c5ccccc45)ccc3F)CC2)cc1
pIC50 [1]: 9.23
pIC50 [2]: 8.19
pIC50 [3]: 7.46

SMILES: NC(=O)c1cccc2cn(-c3ccc([C@]4(F)CCCNC4)cc3)nc12
pIC50 [4]: > 7.00

SMILES: C[C@@H]1COCCN1c1nc(-c2c(N)ncc3[nH]ccc23)nc2c1OC1CC2(S(C)(=O)=O)C1
pIC50 (LoVo): 8.87
pIC50 (ATR/ATRIP [5]): 7.21

SMILES: CCc1ncc(S(=O)(=O)Nc2cc(-c3ccc4ncc5c(c4c3)C3(CCC3)C(=O)N5C)cnc2OCCCN(C)C)s1
pIC50 [6]: 9.00
pIC50 [7]: 9.00

SMILES: Cc1cc2ncnn2cc1Nc1ncc2c(n1)C1(CCC3(CC3)CC1)C(=O)N2C
bioavailability [8]: 83%
Cmax [9]: 2170 nM

SMILES: CN(C)CCCOc1ncc(-c2ccc3ncc4c(c3c2)C2(CCC2)C(=O)N4C)cc1NS(=O)(=O)C(F)(F)F
pIC50 [6]: 9.00
pIC50 [7]: 9.00

SMILES: Cc1cc2ncnn2cc1Nc1ncc2c(n1)C1(CCC(C)(C)CC1)C(=O)N2C
bioavailability [8]: 114%

SMILES: C[C@@H]1COCCN1c1nc(C(C)(C)C#N)c2[nH]nc(-c3ccn[nH]3)c2n1
pIC50 (LoVo): 7.26
pIC50 (ATR/ATRIP [10]): 8.52

SMILES: C[C@H]1CN(C(=O)c2cc(Cc3n[nH]c(=O)c4c3CCCC4)ccn2)CCN1C(=O)C(=O)C1CC1
pIC50 [18]: > 6.70

SMILES: C[C@@H]1COCCN1c1nc(-c2nncc3[nH]ccc23)nc2c1OC1CC2(S(C)(=O)=O)C1
pIC50 (LoVo): 7.69
pIC50 (ATR/ATRIP [5]): 6.98

SMILES: CC(C)n1c(=O)n(C)c2cnc3ccc(-c4ccc(OCCCN(C)C)nc4)cc3c21
Ratio IC50 (Homo sapiens [11]): > 1000
Ratio IC50 (Homo sapiens [12]): > 1000
Ratio IC50 (Homo sapiens [13]): > 1000
pIC50 [14]: < 5.00
pIC50 [15]: < 5.00
pIC50 [16]: < 4.52
pIC50 [17]: 8.40

SMILES: C[C@@H]1CN(c2cc(O[C@H]3CC[C@@H](Nc4ncccn4)CC3)c3nccnc3c2)CCO1
pKi [19]: > 7.00

SMILES: C[C@@H]1COC[C@H]2COc3c(nc(-c4ccnc5[nH]ccc45)nc3C3(S(C)(=N)=O)CC3)N21 (stereo partly drawn)
pIC50 (LoVo): 6.16
pIC50 (ATR/ATRIP [10]): 8.40

SMILES: Cc1ccc(-c2cc(N3CCOC[C@H]3C)nn3c(-c4ccn[nH]4)cnc23)cn1
pIC50 (DU-145): 6.04
pIC50 (ATR/ATRIP [20]): 6.42
pIC50 (NCI-H460): 6.49
